Laboratory results as given in patent publication US11466003B2, “Nitrogenous heterocyclic aromatic compound, preparation method therefor, pharmaceutical composition thereof, and application thereof” (SHANGHAI YINGLI PHARMACEUTICAL CO., LTD, priority 2016, dated 2022).

biological target: ALK5 (Homo sapiens (Human), UniProt P36897); test: Evaluation of IC50 of inhibitory activity toward ALK5 enzyme (ADP-Glo kinase assay); type: biochemical; conditions: 25 nM ALK5, 0.1 mg/mL peptide TGFbR1, 7 μM ATP, 30° C. 1 hour, ADP-Glo luminescence
Sequence (P36897 34-503, species assumed): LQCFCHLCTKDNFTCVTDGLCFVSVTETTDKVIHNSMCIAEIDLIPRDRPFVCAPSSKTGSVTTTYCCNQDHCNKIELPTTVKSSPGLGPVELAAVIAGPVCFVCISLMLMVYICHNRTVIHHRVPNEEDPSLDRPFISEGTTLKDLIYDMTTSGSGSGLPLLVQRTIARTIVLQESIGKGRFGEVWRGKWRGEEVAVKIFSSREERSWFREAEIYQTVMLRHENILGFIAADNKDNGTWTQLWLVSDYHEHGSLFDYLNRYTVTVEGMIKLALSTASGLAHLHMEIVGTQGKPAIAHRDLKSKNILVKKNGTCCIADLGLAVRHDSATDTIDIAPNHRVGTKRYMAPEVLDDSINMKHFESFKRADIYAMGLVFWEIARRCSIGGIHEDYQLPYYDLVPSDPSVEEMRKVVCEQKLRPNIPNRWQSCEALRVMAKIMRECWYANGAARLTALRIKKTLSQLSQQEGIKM
Procedure: 5. […] The value of the luminescence reading was converted to % inhibition by formula (% inhibition=(max−sample RLU)/(max−min)×100, wherein, “min” refers to control fluorescence reading of reaction of no enzyme; “max” refers to the fluorescence reading of the sample with DMSO added as a control. The data was imported into MS Excel and curve fitting was performed using GraphPad Prism. IC50 values was calculated.

Row | IC50 | Structure (SMILES)
1 | 339 nM | Cc1ccn(-c2ccccc2-c2ccc3ncc(C(N)=O)n3c2)n1 [Compound 32]
2 | 221 nM | Cc1cccc(-c2ccccc2-c2ccc3occ(C(N)=O)c3c2)n1 [Compound 33]
3 | 322 nM | Cc1cncc(-c2ccccc2-c2ccc3ncc(C(N)=O)n3c2)n1 [Compound 44]
4 | 38 nM | COc1ccc(-c2cccc(C)n2)c(-c2ccc3ncc(C(N)=O)n3c2)c1 [Compound 29]
5 | 56 nM | Cc1cccc(-c2cc3nccn3cc2-c2ccc3ncc(C(N)=O)n3c2)n1 [Compound 57]
6 | 114 nM | Cc1cccc(-c2ccccc2-c2ccc3ncc(C(=O)NC4CCOCC4)n3c2)n1 [Compound 61]
7 | 126 nM | Cn1ccc(-c2ccccc2-c2ccc3ncc(C(N)=O)n3c2)n1 [Compound 47]
8 | 237 nM | Cc1nccc(-c2ccccc2-c2ccc3ncc(C(N)=O)n3c2)n1 [Compound 48]
9 | 63 nM | Cc1cccc(-c2ccc(C(N)=O)cc2-c2ccc3ncc(C(N)=O)n3c2)n1 [Compound 37]
10 | 15 nM | NC(=O)c1cnc2ccc(-c3ccccc3-c3cccc(C(F)(F)F)n3)cn12 [Compound 45]
11 | 579 nM | Cc1cccc(-c2ccccc2-c2ccc3ncc(C(=N)N)n3c2)n1 [Compound 35]
12 | 2930 nM | Cc1cccc(-c2ccccc2-c2ccc3nc(C)c(C(N)=O)n3c2)n1 [Compound 30]
13 | 64 nM | Cc1cccc(-c2ccccc2-c2ccc3ncc(C(=O)NCCN4CCOCC4)n3c2)n1 [Compound 60]
14 | 39 nM | Cc1cccc(-c2ccc(Oc3ccccc3F)cc2-c2ccc3ncc(C(N)=O)n3c2)n1 [Compound 59]
15 | 18 nM | Cc1nc(-c2ccccc2-c2ccc3ncc(C(N)=O)n3c2)ccc1F [Compound 38]
16 | 102 nM | Cc1cccc(-c2ccccc2-c2ccc3nc[nH]c(=O)c3c2)n1 [Compound 49]
17 | 415 nM | Cc1cccc(-c2ccccc2-c2ccc3ncc(C(N)=O)nc3c2)n1 [Compound 52]
18 | 74 nM | Cc1coc(-c2ccccc2-c2ccc3ncc(C(N)=O)n3c2)n1 [Compound 63]
19 | 13 nM | Cc1cccc(-c2ccc(OCc3ccccc3F)cc2-c2ccc3ncc(C(N)=O)n3c2)n1 [Compound 55]
20 | 126 nM | Cc1cccc(-c2ccccc2-c2ccc3ncc(C)n3c2)n1 [Compound 31]
21 | 98 nM | Cc1cccc(-c2ccccc2-c2ccc3ncc(C(N)=O)n3n2)n1 [Compound 54]
22 | 6.9 nM | Cc1cccc(-c2cscc2-c2ccc3ncc(C(N)=O)n3c2)n1 [Compound 53]
23 | 38 nM | Cc1csc(-c2ccccc2-c2ccc3ncc(C(N)=O)n3c2)n1 [Compound 26]
24 | 12 nM | Cc1ccc(F)c(-c2ccccc2-c2ccc3ncc(C(N)=O)n3c2)n1 [Compound 40]
25 | 46 nM | Cc1cccc(-c2ccccc2-c2ccc3ncc(C(=O)NC4CC4)n3c2)n1 [Compound 58]
26 | 196 nM | Cc1nc(-c2ccccc2-c2ccc3ncc(C(N)=O)n3c2)ccc1Cl [Compound 39]
27 | 110 nM | Cc1cccc(-c2ccncc2-c2ccc3ncc(C(N)=O)n3c2)n1 [Compound 23]
28 | 144 nM | Cc1ccnc(-c2ccccc2-c2ccc3ncc(C(N)=O)n3c2)n1 [Compound 42]

The next lines start with the molecule.

Row | Structure (SMILES) | IC50
29 | Cc1cccc(-c2ccccc2-c2ccc3ncc(C(N)=O)n3c2)n1 [Compound 2] | 16.5 nM
30 | NC(=O)c1cnc2ccc(-c3ccccc3-c3ccccn3)cn12 [Compound 7] | 85 nM
31 | Cc1cccc(-c2ccc(F)cc2-c2ccc3ncc(C(N)=O)n3c2)n1 [Compound 9] | 16 nM
32 | Cc1cccc(-c2ccccc2-c2ccc3nncn3c2)n1 [Compound 17] | > 10000 nM
33 | Cc1cccc(-c2ccccc2-c2ccc3ncnn3c2)n1 [Compound 15] | 360 nM
34 | Cc1cccc(-c2ccccc2-c2ccc3ncc(C(=O)NO)n3c2)n1 [Compound 12] | 45 nM
35 | Cc1cccc(-c2c(F)cccc2-c2ccc3ncc(C(N)=O)n3c2)n1 [Compound 6] | 82 nM
36 | Cc1cccc(-c2cccc(F)c2-c2ccc3ncc(C(N)=O)n3c2)n1 [Compound 8] | 45 nM
37 | Cc1cccc(-c2ccccc2-c2ccn3ncc(C(N)=O)c3c2)n1 [Compound 14] | 53 nM
38 | Cc1cccc(-c2ccccc2-c2ccc3c(cnn3C(N)=O)c2)n1 [Compound 19] | > 10000 nM
39 | Cc1cccc(-c2cc(F)ccc2-c2ccc3ncc(C(N)=O)n3c2)n1 [Compound 10] | 35 nM
40 | Cc1cccc(-c2ccccc2-c2ccc3ncc(S(N)(=O)=O)n3c2)n1 [Compound 34] | 581 nM
41 | CNC(=O)c1cnc2ccc(-c3ccccc3-c3cccc(C)n3)cn12 [Compound 3] | 27 nM
42 | Cc1cccc(-c2ccccc2-c2ccc3ncc(C#N)n3c2)n1 [Compound 20] | 535 nM
43 | Cc1cccc(-c2ccccc2-c2ccc3nnc(C(N)=O)n3c2)n1 [Compound 18] | 4740 nM
44 | Cc1cccc(-c2ccccc2-c2ccc3[nH]ncc3c2)n1 [Compound 16] | 1300 nM
45 | Cc1cccc(-c2ccccc2-c2ccnc3ccc(C(N)=O)cc23)n1 [Compound C-1, reference compound] | > 10000 nM
46 | Cc1cccc(-c2ccc(C#N)cc2-c2ccc3ncc(C(N)=O)n3c2)n1 [Compound 25] | 73 nM
47 | Cc1cccc(-c2ccccc2-c2ccc3ncnc(N)c3c2)n1 [Compound 13] | 337 nM
48 | Cc1cccc(-c2ccccc2-c2ccc3ncc(NC=O)n3c2)n1 [Compound 28] | 674 nM
49 | Cc1cccc(-c2ccccc2-c2ccc3ncc(-c4nnn[nH]4)n3c2)n1 [Compound 21] | 72 nM
50 | Cc1cccc(-c2ccccc2-c2ccc3ncc(C(=O)N(C)C)n3c2)n1 [Compound 5] | 243 nM
51 | Cc1cccc(-c2ccccc2-c2ccc3ncc(C(=O)O)n3c2)n1 [Compound 1] | 192 nM
52 | Cc1cccc(-c2ccccc2-c2ccc3ncc(N)n3c2)n1 [Compound 22] | 560 nM
53 | Cc1cccc(-c2ccccc2-c2ccc3ncc(CN)n3c2)n1 [Compound 4] | 5700 nM
54 | Cc1cccc(-c2ccccc2-c2ccc3nccn3c2)n1 [Compound 11] | 145 nM
55 | Cc1nc(-c2ccccc2-c2ccc3ncc(C(N)=O)n3c2)cs1 [Compound 27] | 193 nM
56 | COc1cccc(-c2ccccc2-c2ccc3ncc(C(N)=O)n3c2)n1 [Compound 24] | 45 nM
